How the values were obtained:
[1] = tested on: α-β-Tubulin; test: α-β-Tubulin polymerization assay; assay type: biochemical; design: key: a compound showing 0 to 50% inhibition at 20 μM is reported as score 1; Score 2 compounds are defined as compound showing more than 50% inhibition at 20 μM and less than 50% inhibition at 5 μM; a compound showing more than 50% inhibition at 5 μM is reported as score 3; conditions: inhibition of polymerization at 20 μM and 5 μM, reported as score
Experimental: The tubulin polymerization assay is an adaptation of an assay originally described by Bonne, D. et al. (J. Biol. Chem., 1985, 260:2819-25). The assay kit was purchased from Cytoskeleton, Inc. (catalogue number BK011) and the assay was performed as described by the supplier with the following modifications. The assay was run in a 384-well black Proxiplate (Perkin Elmer) and volumes were adapted accordingly. The reactions were carried out in a final volume of 10 μl. Compounds were added to 25 μl of the reaction mix in 96-well PP plates (Corning) on ice and 10 μl of this mixture was dispensed into duplicates of the 384-well Proxiplates pre-warmed to 37° C. in a Fluoroskan Ascent plate reader (Thermo Scientific). Fluorescence measurements were taken every minute for one hour. The maximum slope of each well was determined (linear regression through 4 consecutive points) and polymerization was calculated as a percentage of polymerization observed in the absence of compound. Compounds were first measured at a concentration of 20 μM and then at 5 μM for those showing more than 50% inhibition at 20 μM as compared to the polymerization observed in the absence of compound. Results are reported in Table F-2 as scores defined as: a compound showing 0 to 50% inhibition at 20 μM is reported as score 1; a compound showing more than 50% inhibition at 5 μM is reported as score 3.

[2] = tested on: Human colon carcinoma HCT116 cells; test: Anti-proliferative effect, Alamar Blue assay, HCT116; assay type: cell-based; conditions: 4-day incubation; for IC50: Homo sapiens, HCT-116, 96 h, read-out: HCT116 antiproliferative activity pIC50 (converted)
Experimental: Human colon carcinoma HCT116 cells obtained from the ATCC were cultured in McCoy's 5A medium supplemented with 2 mM L-Glutamine, 50 μg/ml gentamicin and 10% heat inactivated fetal calf serum.
(§1) Resazurin was purchased from Aldrich (Prod. No. 199303). Potassium ferrocyanide, potassium ferricyanide, KH2PO4 and K2HPO4 were purchased from Sigma (Prod. Nos. P9387, P8131, P5655 and P8281, respectively).
(§2) Potassium Phosphate Buffer 0.1 M (PPB) was made as follows: 2.72 gram KH2PO4 and 13.86 gram K2HPO4 were dissolved in 500 ml milli-Q H2O, the pH was adjusted to pH 7.4 and the volume was brought to 1 liter with milli-Q H2O; the buffer was filter sterilised and stored at room temperature. Resazurin stock solution (PPB-A) was prepared fresh by dissolving 45 mg resazurin in 15 ml PBS. 30 mM potassium ferricyanide (PPB-B) was prepared by dissolving 0.987 gram potassium ferricyanide in 100 ml PPB. 30 mM potassium ferrocyanide (PPB-C) was prepared by dissolving 1.266 gram potassium ferrocyanide in 100 ml PPB.
(§3) Mixture of PPB-A, PPB-B and PPB-C was prepared by mixing equal volumes of the respective solutions. Resazurin work solution (herein termed “Alamar Blue” solution) was prepared by diluting said mixture 20× (vol/vol) in PPB and filter sterilising; the Alamar Blue solution could be kept at 4° C. for a maximum of 2 weeks.
(§4) For experiments in 384 wells plates the cells were seeded at a density of 4.5×10^3 cells/ml in Falcon 384-well culture plates (Life Technologies, Merelbeke, Belgium), black with clear bottom, in 45 μl culture medium. Cells were allowed to adhere to plastic for 24 hours. The tested compound was pre-diluted (1/50 in culture medium) and 5 μl pre-diluted compound was added to the wells. Following 4-day incubation, 10 μl of the Alamar Blue solution was added to each well and the cells were further incubated for 4 hours (HCT116) or 24 hours (PC-3) at 37° C. The fluorescence intensity was measured for each well on a Fluorescence plate reader (Fluoroskan, Labsystems, 540 nm excitation and 590 nm emission)
(§5) The antiproliferative activity was calculated as percentage of remaining viable cells in treated versus control (untreated cells) conditions. Within an experiment, the result for each experimental condition is the mean of 3 replicate wells. When appropriate, the experiments were repeated to establish full concentration-response curves. When appropriate, IC50-values (concentration of the drug, needed to reduce cell growth to 50% of the control) were computed using probit analysis for graded data (Finney, D. J., Probit Analyses, 2nd Ed. Chapter 10, Graded Responses, Cambridge University Press, Cambridge 1962). Herein the effects of test compounds are expressed as pIC50 (the negative log value of the IC50-value) (see Table 3).

[3] = tested on: human prostate cancer PC3 cells; test: Eb1 cellular assay (Eb1 Comet assay); assay type: cell-based; conditions: 1 hour treatment, LAC = concentration where Eb1 foci absent in at least 50% of treated cells
Experimental: The Eb1 Comet assay relies on the detection of the Eb1 protein at the plus end of polymerizing microtubules (Mimori-Kiyosue, 2000) using indirect immunofluorescence. Disruption of microtubule dynamics through de-polymerization or stabilization results in a de-localization of Eb1 from the growing microtubule ends and this is visualized by the disappearance of Eb1 containing cytoplasmic foci.
Briefly, human prostate cancer PC3 cells obtained from the American Type Culture Collection were grown in 96-well plates (Greiner, cat. no. 655090) in HAM's F12 medium as recommended by the provider (ATCC). The cells were treated for 1 hour at 37° C. with compounds dissolved in DMSO (0.6% final DMSO concentration). The culture medium was then removed by aspiration and the cells were fixed by adding cold methanol (−20° C.). After a 15 minutes incubation at −20° C., the cells were washed twice with DPBS (Gibco) containing 0.5% Triton X-100. Mouse Eb1 antibody (BD Transduction Laboratories, cat. no. 610534) was added to the cells (1/250 dilution in DPBS containing 1% BSA) and incubated overnight at room temperature. The antibody was subsequently removed and the cells washed twice with DPBS, 0.5% Triton X-100. Secondary goat anti-mouse antibody conjugated to Alexa 488 fluorescent dye (Molecular Probes) was added at a 1/500 dilution in DPBS, 1% BSA and incubated for 1 hour at 37° C. The cells were washed twice with DPBS, 0.5% Triton X-100 and then DPBS containing 0.5% Triton X-100 and 1/5000 Hoechst 33342 (Molecular Probes) was added. Microscopy based Eb1 foci visualization was carried out using an IN Cell Analyser 1000 (Amersham Biosciences) using a 20× objective. Compound dependent microtubule disruption was visually determined by the disappearance in Eb1 foci. The lowest active concentration (LAC) was determined as the concentration where Eb1 foci were absent in at least 50% of the treated cells. Herein the effects of test compounds are expressed as pLAC (the negative log value of the LAC-value) (see Table 3).

[4] = tested on: Human prostate cancer PC-3 cells; test: Anti-proliferative effect, Alamar Blue assay, PC-3; assay type: cell-based; design: key to PC3 antiproliferative activity pIC50: pIC50 = negative log of IC50 (conc. reducing growth to 50% of control); conditions: 4-day incubation; for IC50: Homo sapiens, 96 h, read-out: PC3 antiproliferative activity pIC50 (converted)
Experimental: Human prostate cancer PC-3 cells obtained from the ATCC were cultured in HAM'S F12 medium supplemented with 1 mM Sodium Pyruvate, 1.5 g/L Sodium Bicarbonate, 50 μg/ml gentamicin, non-essential amino acids and 10% fetal calf serum.
as §1, §2, §3, §4, §5

Row | HCT116 antiproliferative activity pIC50 [2] | PC3 antiproliferative activity pIC50 [4] | IC50 [2] [nM] | IC50 [4] [nM] | SMILES | tubulin polymerization score [1] | Eb1 pLAC [3]
1 | 6.8 | 6.5 |  |  | CN1Cc2ccc(C(C)(C#N)Cc3cccc(C#N)c3)cc2NC1=O (centres unmarked) [Compound 28] | 3 (a compound showing more than 50% inhibition at 5 μM is reported as score 3) | 6.5
2 |  |  | 316 | 398 | CCN1Cc2ccc(C(C)(C#N)Cc3cccc(C#CCO)c3)cc2NC1=O (centres unmarked) [Compound 11] | 3 (a compound showing more than 50% inhibition at 5 μM is reported as score 3) | 7
3 | 7.1 | 6.8 |  |  | CN1Cc2ccc([C@@](C)(C#N)Cc3cccc(C#N)c3)cc2NC1=O [Compound 27] | 3 (a compound showing more than 50% inhibition at 5 μM is reported as score 3) | 6.5
4 | 6.4 | 6.3 |  |  | CCN1Cc2ccc(C(C)(C#N)Cc3nc4ccccc4s3)cc2NC1=O (centres unmarked) [Compound 23] |  | 
5 |  |  | 631 | 1260 | CCN1Cc2ccc(C(C)(C#N)CNCc3ccc(C#N)cc3)cc2NC1=O (centres unmarked) [Compound 12] |  | 
6 | 6.4 | 6.2 |  |  | CCN1Cc2ccc(C(C)(C#N)Cc3cc(Cl)cc(Cl)c3)cc2NC1=O (centres unmarked) [Compound 20] |  | 6.5

Further lines, the compound ahead of its results:

Row | SMILES | HCT116 antiproliferative activity pIC50 [2] | PC3 antiproliferative activity pIC50 [4] | IC50 [2] [nM] | IC50 [4] [nM] | tubulin polymerization score [1] | Eb1 pLAC [3]
7 | CCN1Cc2ccc(C(C#N)(CC)Cc3nc(OC)cc(OC)n3)cc2NC1=O (centres unmarked) [Compound 30] | 6.4 | 6.0 |  |  | 3 (a compound showing more than 50% inhibition at 5 μM is reported as score 3) | 6.5
8 | CCN1Cc2ccc(C(C#N)(CC)Cc3cccc(C#N)c3)cc2NC1=O (centres unmarked) [Compound 2] |  |  | 316 | 316 | 3 (a compound showing more than 50% inhibition at 5 μM is reported as score 3) | 7
9 | CCN1Cc2cc(F)c(C(C)(C#N)Cc3cccc(C#N)c3)cc2NC1=O (centres unmarked) [Compound 26] | 6.6 | 6.3 |  |  | 3 (a compound showing more than 50% inhibition at 5 μM is reported as score 3) | 6.5
10 | CCN1Cc2ccc(C(C)(C#N)CCOc3ccc(C#N)cc3)cc2NC1=O (centres unmarked) [Compound 15] |  |  | 100 | 200 |  | 
11 | CCN1Cc2ccc([C@@](C)(C#N)[C@@H]3CCc4c(Cl)ccnc43)cc2NC1=O [Compound 14] |  |  | 501 | 1260 |  | 
12 | CCN1Cc2ccc(C(C)(C#N)Cc3cccc(F)c3)cc2NC1=O (centres unmarked) [Compound 24] | 6.8 | 6.6 |  |  |  | 
13 | CCN1Cc2ccc(C(C)(C#N)Cc3cccc(C#N)n3)cc2NC1=O (centres unmarked) [Compound 21] | 6.3 | 6.1 |  |  | 2 | 5.5
14 | CCN1Cc2cc(F)c(C(C)(C#N)Cc3nc(OC)cc(OC)n3)cc2NC1=O (centres unmarked) [Compound 25] | 6.3 | 6.3 |  |  | 3 (a compound showing more than 50% inhibition at 5 μM is reported as score 3) | 6.5
15 | CCN1Cc2ccc(C(C)(C#N)Cc3cccc(C#N)c3)cc2NC1=O (centres unmarked) [Compound 17] | 6.8 | 6.6 |  |  | 3 (a compound showing more than 50% inhibition at 5 μM is reported as score 3) | 
16 | CCN1Cc2ccc(C(C)(C#N)Cc3nc(OC)cc(OC)n3)cc2NC1=O (centres unmarked) [Compound 18] | 6.6 | 6.6 |  |  | 3 (a compound showing more than 50% inhibition at 5 μM is reported as score 3) | 
17 | CCN1Cc2ccc(C(C)(C#N)Cc3cccc(C)c3)cc2NC1=O (centres unmarked) [Compound 22] | 6.7 | 6.4 |  |  |  | 

— US8168644B2, “Quinazolinone derivatives as tubulin polymerization inhibitors” (Janssen Pharmaceutica NV, priority 2008, dated 2012)
